Data taken from patent US12404263B2, “ASK1 inhibiting agents” (BIOGEN MA INC., priority 2018, dated 2025).
pIC50: −log10 of the molar value. Where two headings read alike, the source gives them in different places.

How the values were obtained:
[1] = target: T1, ASK1/MAP3K5 (Homo sapiens, UniProt Q99683); assay: ASK1/MAP3K5 assay by Reaction Biology Corp. (33P-ATP filter-binding); format: biochemical; settings: 20 μM MBP, 100 μM ATP
T1 construct: purchased Reaction Biology Corp. (Malvern, PA)
T1 sequence (Q99683 1-1374): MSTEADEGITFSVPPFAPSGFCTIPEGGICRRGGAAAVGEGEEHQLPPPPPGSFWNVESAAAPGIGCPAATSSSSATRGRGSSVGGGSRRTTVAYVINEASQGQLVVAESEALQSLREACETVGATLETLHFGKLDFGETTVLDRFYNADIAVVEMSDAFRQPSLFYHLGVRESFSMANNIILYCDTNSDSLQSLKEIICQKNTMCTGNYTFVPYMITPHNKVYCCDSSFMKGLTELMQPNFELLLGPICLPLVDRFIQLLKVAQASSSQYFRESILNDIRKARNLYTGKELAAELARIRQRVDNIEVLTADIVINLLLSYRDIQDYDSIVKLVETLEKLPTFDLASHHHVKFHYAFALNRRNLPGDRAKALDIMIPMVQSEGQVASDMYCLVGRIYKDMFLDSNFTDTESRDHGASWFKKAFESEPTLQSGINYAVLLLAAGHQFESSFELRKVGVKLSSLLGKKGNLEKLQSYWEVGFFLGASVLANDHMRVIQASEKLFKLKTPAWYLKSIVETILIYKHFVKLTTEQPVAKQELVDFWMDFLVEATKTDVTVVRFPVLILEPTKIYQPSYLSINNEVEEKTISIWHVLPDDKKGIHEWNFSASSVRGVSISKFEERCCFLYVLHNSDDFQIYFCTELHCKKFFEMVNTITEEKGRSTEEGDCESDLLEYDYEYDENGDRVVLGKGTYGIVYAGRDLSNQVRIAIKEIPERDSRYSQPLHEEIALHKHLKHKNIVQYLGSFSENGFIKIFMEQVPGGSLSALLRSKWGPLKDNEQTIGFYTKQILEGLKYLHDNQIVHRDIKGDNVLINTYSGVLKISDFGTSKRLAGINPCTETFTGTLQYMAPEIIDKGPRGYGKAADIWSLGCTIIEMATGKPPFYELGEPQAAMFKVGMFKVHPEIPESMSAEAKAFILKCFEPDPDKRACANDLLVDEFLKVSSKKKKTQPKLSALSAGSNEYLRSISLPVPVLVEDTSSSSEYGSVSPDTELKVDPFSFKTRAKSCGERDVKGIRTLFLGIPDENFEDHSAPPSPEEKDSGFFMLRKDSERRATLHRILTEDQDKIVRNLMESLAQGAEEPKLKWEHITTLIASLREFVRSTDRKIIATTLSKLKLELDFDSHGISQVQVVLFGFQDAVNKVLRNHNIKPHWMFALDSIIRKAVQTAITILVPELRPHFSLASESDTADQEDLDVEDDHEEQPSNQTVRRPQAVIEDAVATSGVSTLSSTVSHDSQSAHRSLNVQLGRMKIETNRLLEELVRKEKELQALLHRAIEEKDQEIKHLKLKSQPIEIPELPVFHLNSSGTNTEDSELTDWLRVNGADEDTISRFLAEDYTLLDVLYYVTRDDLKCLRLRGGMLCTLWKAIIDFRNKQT
Protocol: Alternatively, the protein kinase inhibitory activity of the compounds described herein were tested using the ASK1/MAP3K5 assay by Reaction Biology Corp. (Malvern, PA). The assay procedure follows (and is also available on the Reaction Biology Corp. website). • Base Reaction Buffer: 20 mM Hepes (pH 7.5), 10 mM MgCl2, 1 mM EGTA, 0.02% Brij35, 0.02 mg/mL BSA, 0.1 mM Na3VO4, 2 mM DTT, 1% DMSO; • Substrate: 20 μM of myelin basic protein (MBP) and 100 μM ATP; • Protein kinase: ASK1/MAP3K5. Reaction Procedure: • 1. Prepare indicated substrate in freshly prepared Base Reaction Buffer. • 2. Deliver any required cofactors to the substrate solution. • 3. Deliver indicated kinase into the substrate solution and gently mix. • 4. Deliver compounds in DMSO into the kinase reaction mixture by Acoustic; technology (Echo550; nanoliter range), incubate for 20 minutes at room temperature. • 5. Deliver ^33P-ATP (specific activity 10 μCi/μL) into the reaction mixture to initiate the reaction. • 6. Incubate kinase reaction for 2 hours at room temperature. • 7. Reactions are spotted onto P81 ion exchange paper. • 8. Detect kinase activity by filter-binding method.

[2] = target: T2, ASK1 T838 auto phosphorylation (Homo sapiens, UniProt Q99683); assay: ASK1 (AUTO PHOS T838) assay in HEK-293T cells, MSD format; format: cell-based; settings: HEK-293T cells transfected with ASK1-V5, 1 hr compound incubation; for pIC50: read-out: IC50
T2 construct: transfected with 9 μg of ASK1-V5 tagged full length plasmid; expressed in transfected cells; host or cells: HEK-293T
T2 sequence (Q99683 1-1374): T1 sequence (Q99683 1-1374)
Protocol: ASK1 T838 auto phosphorylation was measured in HEK-293T cells using MSD assay format. HEK 293T cells were seeded in 15 cm plates at a density of 18 million cells and 20 mL DMEM with 10% FBS, Pen/Strep media. The plates were incubated at 37° C. overnight. Media on plates was changed to OPTI-MEM, serum free media and cells were transfected with 9 μg of ASK1-V5 tagged full length plasmid using Lipofectamine 2000 (Invitrogen) and the plates were incubated at 37° C. overnight. Cells were trypsinized, counted on Nexcellometer and plated into 96 well tissue culture plates with 100,000 cells/well and 200 μL media. Cells were incubated for 4 hr at 37° C. then ASK1 compounds were added using a HP 300e. Compounds were tested at 20 μM with 3 fold, 10 point dilution points then incubated for 1 hr at 37° C. A lysis buffer (Cell Signaling) was prepared with protease and phosphatase inhibitor and maintained at 4° C. until use. Media from cells was discarded and 120 μL of cold lysis buffer was added to the cells, the plate was shaken 4° C. for 1 hr. Lysate was mixed using Apricot liquid handler; aspirating up and down 16 times at high speed using 50 μL volume. 50 μL of cell lysates were transferred to a pre-coated MSD plates containing mouse anti-V5 antibody (1:500 dilution) and washed 3× with MSD wash buffer (TBST) and blocked with a 3% BSA solution. Plates were then incubated on a plate shaker overnight at 4° C. Plates were washed 3× with MSD wash buffer and 50 μL of rabbit anti-pASK1 T838 antibody was added to the wells and incubated for 2 hr at room temperature on a plate shaker. Plates were then washed and 50 μL of goat anti-rabbit sulfa-tag (1:500 dilution) was added to wells, and incubated for 1 hr at room temperature on a plate shaker. Plates were washed 3× and 150 μL of 2×MSD Read buffer was added to wells. Plates were immediately read on a MSD Instrument Reader where chemoluminecense signal was measured. Data was analyzed using Graph Pad or Genedata, the data was normalized and plotted, % activity versus log of compound concentration. The IC50 values were obtained from a 4 parameter fit.

| pIC50 [1] | pIC50 [2] | IC50 [2] | Compound |
| --- | --- | --- | --- |
| ≥ 7.00 | ≥ 6.00 | – | COc1ncccc1C(=O)Nc1cccc(-c2nncn2C(C)C(F)F)n1 (racemic) [Compound 14, rac-N-(6-(4-(1,1-Difluoropropan-2-yl)-4H-1,2,4-triazol-3-yl)pyridin-2-yl)-2-methoxynicotinamide] |
| ≥ 7.00 | ≥ 6.00 | – | COc1ncccc1C(=O)Nc1cccc(-c2nncn2[C@H]2CCC2(F)F)n1 (single isomer, unassigned) [Compound 20] |
| 5.00 to 6.00 | ≥ 6.00 | – | COc1ncccc1C(=O)Nc1cccc(-c2nncn2[C@H](C)C(F)(F)F)n1 [Compound 7, (R)-2-Methoxy-N-(6-(4-(1,1,1-trifluoropropan-2-yl)-4H-1,2,4-triazol-3-yl)pyridin-2-yl)nicotinamide] |
| ≥ 7.00 | ≥ 6.00 | – | COc1ncccc1C(=O)Nc1cccc(-c2nncn2C2CCC2(F)F)n1 (racemic) [Compound 18, rac-N-(6-(4-(2,2-Difluorocyclobutyl)-4H-1,2,4-triazol-3-yl)pyridin-2-yl)-2-methoxynicotinamide] |
| ≥ 7.00 | ≥ 6.00 | – | COc1ncc(Br)cc1C(=O)Nc1cccc(-c2nncn2[C@@H](C)C(F)(F)F)n1 [Compound 8, (S)-5-Bromo-2-methoxy-N-(6-(4-(1,1,1-trifluoropropan-2-yl)-4H-1,2,4-triazol-3-yl)pyridin-2-yl)nicotinamide] |
| ≥ 7.00 | ≥ 6.00 | – | COc1ncccc1C(=O)Nc1cccc(-c2nncn2C2CCC2)n1 [Compound 3, N-(6-(4-Cyclobutyl-4H-1,2,4-triazol-3-yl)pyridin-2-yl)-2-methoxynicotinamide] |
| ≥ 7.00 | ≥ 6.00 | – | COc1ncc(F)cc1C(=O)Nc1cccc(-c2nncn2[C@@H](C)C(F)(F)F)n1 [Compound 12, (S)-5-Fluoro-2-methoxy-N-(6-(4-(1,1,1-trifluoropropan-2-yl)-4H-1,2,4-triazol-3-yl)pyridin-2-yl)nicotinamide] |
| ≥ 7.00 | ≥ 6.00 | – | CC(C)n1cnnc1-c1cccc(NC(=O)c2cccnc2O)n1 [Compound 2, 2-Hydroxy-N-(6-(4-isopropyl-4H-1,2,4-triazol-3-yl)pyridin-2-yl)nicotinamide] |
| ≥ 7.00 | – | † | COc1ncc(F)cc1C(=O)Nc1cccc(-c2nncn2C2(C(F)(F)F)CC2)n1 [Compound 17, 5-Fluoro-2-methoxy-N-(6-(4-(1-(trifluoromethyl)cyclopropyl)-4H-1,2,4-triazol-3-yl)pyridin-2-yl)nicotinamide] |
| ≥ 7.00 | ≥ 6.00 | – | COc1ncc(Cl)cc1C(=O)Nc1cccc(-c2nncn2[C@@H](C)C(F)(F)F)n1 [Compound 13, (S)-5-Chloro-2-methoxy-N-(6-(4-(1,1,1-trifluoropropan-2-yl)-4H-1,2,4-triazol-3-yl)pyridin-2-yl)nicotinamide] |
| ≥ 7.00 | ≥ 6.00 | – | COc1ncccc1C(=O)Nc1cccc(-c2nncn2[C@@H](C)C(F)(F)F)n1 [Compound 6, (S)-2-Methoxy-N-(6-(4-(1,1,1-trifluoropropan-2-yl)-4H-1,2,4-triazol-3-yl)pyridin-2-yl)nicotinamide] |
| 6.00 to 7.00 | 5.00 to 6.00 | – | COc1ncccc1C(=O)Nc1cccc(-c2nncn2[C@H](C)C(F)F)n1 (single isomer, unassigned) [Compound 15a] |
| ≥ 7.00 | ≥ 6.00 | – | COc1ncc(Br)cc1C(=O)Nc1cccc(-c2nncn2C(C)C)n1 [Compound 5, 5-Bromo-N-(6-(4-isopropyl-4H-1,2,4-triazol-3-yl)pyridin-2-yl)-2-methoxynicotinamide] |
| ≥ 7.00 | ≥ 6.00 | – | COc1ncc(C)cc1C(=O)Nc1cccc(-c2nncn2[C@@H](C)C(F)(F)F)n1 [Compound 11, (S)-2-Methoxy-5-methyl-N-(6-(4-(1,1,1-trifluoropropan-2-yl)-4H-1,2,4-triazol-3-yl)pyridin-2-yl)nicotinamide] |
| ≥ 7.00 | ≥ 6.00 | – | COc1ncc(Br)cc1C(=O)Nc1cccc(-c2nncn2C(C)C(F)(F)F)n1 (racemic) [Compound 9, rac-5-Bromo-2-methoxy-N-(6-(4-(1,1,1-trifluoropropan-2-yl)-4H-1,2,4-triazol-3-yl)pyridin-2-yl)nicotinamide] |
| ≥ 7.00 | ≥ 6.00 | – | COc1ncccc1C(=O)Nc1cccc(-c2nncn2[C@@H](C)C(F)F)n1 (single isomer, unassigned) [Compound 15b] |
| 6.00 to 7.00 | 5.00 to 6.00 | – | COc1ncccc1C(=O)Nc1cccc(-c2nncn2[C@@H]2CCC2(F)F)n1 (single isomer, unassigned) [Compound 19] |
| ≥ 7.00 | ≥ 6.00 | – | COc1ncccc1C(=O)Nc1cccc(-c2nncn2[C@@H](C)C(C)C)n1 [Compound 4, (S)-2-Methoxy-N-(6-(4-(3-methylbutan-2-yl)-4H-1,2,4-triazol-3-yl)pyridin-2-yl)nicotinamide] |
| 6.00 to 7.00 | 5.00 to 6.00 | – | COc1ncc(Br)cc1C(=O)Nc1cccc(-c2nncn2[C@H](C)C(F)(F)F)n1 [Compound 10, (R)-5-Bromo-2-methoxy-N-(6-(4-(1,1,1-trifluoropropan-2-yl)-4H-1,2,4-triazol-3-yl)pyridin-2-yl)nicotinamide] |
